From patent publication US8546451B2 (priority 2005, dated 2013)
Marks after values point to notes of the source that are not given here.

Experiments:
[1] = molecular target: androgen receptor (AR) (Rattus norvegicus (Rat), UniProt P15207); test: Cross-reactivity transcriptional activation assay, AR; assay type: cell-based; conditions: agonist and antagonist modes
Source text: Compound IV was screened for cross-reactivity against rat isoforms of glucocorticoid receptor (GR), mineralocorticoids receptor (MR), progesterone receptor (PR), androgen receptor (AR) and human isoforms of farnesoid X receptor (FXR), liver X receptor (LXR), peroxisome proliferator-activated receptors (PPAR-α and PPAR-γ), and retinoid X receptor (RXR-α) in both agonist and antagonist modes in transcriptional activation assays.

[2] = tested on: LH, serum PSA, free testosterone and total testosterone; test: Compound IV study on human males; assay type: in vivo
[3] = Oral bioavailability in rats; assay type: in vivo
Method: Formulations using polyethylene glycol 300 (PEG300) generally produced higher exposures than microemulsions prepared in Tween 80 diluted in deionized water. […] Importantly, in dogs the exposure in the male 30 mg/kg PEG300 oral dose group exceeded the exposure necessary to produce the maximal effect on prostate reduction in the rat model of LH suppression.

[4] = tested on: testosterone, prostate specific antigen (PSA), prostate volume and weight; test: 39-week oral pharmacology and toxicology study in male cynomolgus monkey (13-week interim); conditions: for Mean serum PSA level / Percentage change of mean PSA levels compared to baseline: 4-week; for Percentage change of mean prostate volumes compared to baseline / Mean prostate volumes (ratio): 6-week; for Mean prostate volumes (ratio): TRUS, normalized to body weight; for Mean prostate weights at necropsy / Percentage change of mean prostate weights compared to baseline: 13-week
[5] = 1 mg/kg/day oral, Estimated final concentrations
[6] = 1 mg/kg/day oral, Quantifiable concentrations only
[7] = 10 mg/kg/day oral, Estimated final concentrations
[8] = 10 mg/kg/day oral, Quantifiable concentrations only
[9] = 100 mg/kg/day oral, Estimated final concentrations
[10] = 100 mg/kg/day oral, Quantifiable concentrations only
[11] = Day 1, 1 mg/kg/day oral, Estimated final concentrations
[12] = Day 1, 1 mg/kg/day oral, Quantifiable concentrations only
[13] = Day 1, 10 mg/kg/day oral, Estimated final concentrations
[14] = Day 1, 10 mg/kg/day oral, Quantifiable concentrations only
[15] = Day 1, 100 mg/kg/day oral, Estimated final concentrations
[16] = Day 1, 100 mg/kg/day oral, Quantifiable concentrations only
[17] = Day 3, 1 mg/kg/day oral, Estimated final concentrations
[18] = Day 3, 1 mg/kg/day oral, Quantifiable concentrations only
[19] = Day 3, 10 mg/kg/day oral, Estimated final concentrations
[20] = Day 3, 10 mg/kg/day oral, Quantifiable concentrations only

Chain of androgen receptor (AR) (P15207 whole entry S389L, canonical isoform): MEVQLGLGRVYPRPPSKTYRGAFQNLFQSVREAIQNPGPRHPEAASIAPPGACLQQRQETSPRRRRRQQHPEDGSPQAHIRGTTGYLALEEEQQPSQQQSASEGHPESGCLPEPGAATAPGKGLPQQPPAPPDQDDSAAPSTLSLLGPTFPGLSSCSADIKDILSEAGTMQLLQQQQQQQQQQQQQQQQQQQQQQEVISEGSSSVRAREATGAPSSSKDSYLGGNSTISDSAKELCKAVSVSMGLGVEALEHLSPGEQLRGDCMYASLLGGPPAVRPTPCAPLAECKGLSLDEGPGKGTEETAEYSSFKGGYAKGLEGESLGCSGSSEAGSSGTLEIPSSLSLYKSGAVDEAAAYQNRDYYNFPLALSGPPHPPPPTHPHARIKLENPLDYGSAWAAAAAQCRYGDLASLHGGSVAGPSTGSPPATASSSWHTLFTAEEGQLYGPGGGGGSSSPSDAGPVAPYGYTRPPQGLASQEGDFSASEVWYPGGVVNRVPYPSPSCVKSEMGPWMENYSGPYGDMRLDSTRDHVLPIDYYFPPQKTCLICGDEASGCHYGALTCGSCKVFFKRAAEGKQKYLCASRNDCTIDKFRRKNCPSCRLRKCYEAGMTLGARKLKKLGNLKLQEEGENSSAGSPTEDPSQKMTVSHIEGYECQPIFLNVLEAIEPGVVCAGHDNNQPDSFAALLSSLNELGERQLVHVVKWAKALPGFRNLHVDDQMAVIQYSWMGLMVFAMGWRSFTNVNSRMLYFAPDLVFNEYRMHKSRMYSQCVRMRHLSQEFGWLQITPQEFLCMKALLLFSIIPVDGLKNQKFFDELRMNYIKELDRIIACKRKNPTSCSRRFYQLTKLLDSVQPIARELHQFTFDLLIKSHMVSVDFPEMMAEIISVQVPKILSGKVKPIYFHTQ

O=C(c1ccc(O)c(F)c1)N(c1ccc(O)cc1)c1ccc(F)cc1 [Compound IV, 3-fluoro-N-(4-fluorophenyl)-4-hydroxy-N-(4-hydroxyphenyl)benzamide]
agonist or antagonist activity [1]: did not display any agonist or antagonist activity
Free Testosterone, mean change from baseline ([2]; 100 mg): −17.0%
LH, mean change from baseline ([2]; 100 mg): 20.7%
Serum PSA, mean change from baseline ([2]; 100 mg): −9.2%
Total Testosterone, mean change from baseline ([2]; 100 mg): 3.9%
decrease of PSA levels ([2]; 100 mg): 9.2%
decrease of free testosterone levels ([2]; 100 mg): 17.0%
Free Testosterone, mean change from baseline ([2]; 300 mg): −18.5%
LH, mean change from baseline ([2]; 300 mg): 46.9%
Serum PSA, mean change from baseline ([2]; 300 mg): −24.4%
Total Testosterone, mean change from baseline ([2]; 300 mg): 7.3%
decrease of PSA levels ([2]; 300 mg): 24.4%
decrease of free testosterone levels ([2]; 300 mg): 18.5%
Free Testosterone, mean change from baseline ([2]; 600 mg): −72.7%
LH, mean change from baseline ([2]; 600 mg): 27.6%
Serum PSA, mean change from baseline ([2]; 600 mg): −27.5%
Total Testosterone, mean change from baseline ([2]; 600 mg): −51.9%
decrease of PSA levels ([2]; 600 mg): 27.5%
decrease of free testosterone levels ([2]; 600 mg): 72.7%
decrease of total testosterone level ([2]; 600 mg): 51.9%
Free Testosterone, mean change from baseline ([2]; 1000 mg): −53.2%
LH, mean change from baseline ([2]; 1000 mg): 29.2%
Serum PSA, mean change from baseline ([2]; 1000 mg): −29.9%
Total Testosterone, mean change from baseline ([2]; 1000 mg): −47.9%
decrease of PSA levels ([2]; 1000 mg): 29.9%
decrease of free testosterone levels ([2]; 1000 mg): 53.2%
decrease of total testosterone level ([2]; 1000 mg): 47.9%
changes of PSA levels ([2]; 10 and 30 mg doses): No changes
absorption following oral dosing [3]: rapidly absorbed
bioavailability ([3]; rat, in vivo, po, depending on the formulation): 6 to 25%
PSA reduction (in mean) ([4]; 10 mg/kg for 4 weeks): 69%
PSA reduction (in mean) ([4]; 100 mg/kg for 4 weeks): 87%
body weight reduction ([4]; 100 mg/kg, 91 days (FIG. 14)): ~20%
Mean serum PSA level [4, 5]: 0.9 ng/mL
Percentage change of mean PSA levels compared to baseline [4, 5]: −11%
Mean serum PSA level [4, 6]: 0.9 ng/mL
Percentage change of mean PSA levels compared to baseline [4, 6]: −11%
Mean serum PSA level [4, 7]: 0.3* ng/mL
Percentage change of mean PSA levels compared to baseline [4, 7]: −69%
Mean serum PSA level [4, 8]: 0.3 ng/mL
Percentage change of mean PSA levels compared to baseline [4, 8]: −64%
Mean serum PSA level [4, 9]: 0.1^& ng/mL
Percentage change of mean PSA levels compared to baseline [4, 9]: −87%
Mean serum PSA level [4, 10]: 0.3 ng/mL
Percentage change of mean PSA levels compared to baseline [4, 10]: −72%
Percentage change of mean prostate volumes compared to baseline ([4]; 1 mg/kg/day oral): 6.8%
Mean prostate volumes (ratio) ([4]; 1 mg/kg/day oral): 468
Percentage change of mean prostate volumes compared to baseline ([4]; 10 mg/kg/day oral): −25%
Mean prostate volumes (ratio) ([4]; 10 mg/kg/day oral): 327
Percentage change of mean prostate volumes compared to baseline ([4]; 100 mg/kg/day oral): −45%
Mean prostate volumes (ratio) ([4]; 100 mg/kg/day oral): 242
Mean prostate weights at necropsy ([4]; 1 mg/kg/day oral): 1.8 grams
Percentage change of mean prostate weights compared to baseline ([4]; 1 mg/kg/day oral): 1.7%
Mean prostate weights at necropsy ([4]; 10 mg/kg/day oral): 1.3 grams
Percentage change of mean prostate weights compared to baseline ([4]; 10 mg/kg/day oral): −24%
Mean prostate weights at necropsy ([4]; 100 mg/kg/day oral): 1.4 grams
Percentage change of mean prostate weights compared to baseline ([4]; 100 mg/kg/day oral): −21%
gynecomastia or hyperestrogenicity ([4]; 91 days (FIG. 14)): No sign of gynecomastia or hyperestrogenicity
Mean serum testosterone level [4, 11]: 11 ng/mL
Percentage change of mean serum testosterone levels compared to baseline [4, 11]: 44%
Mean serum testosterone level [4, 12]: 11 ng/mL
Percentage change of mean testosterone levels compared to baseline [4, 12]: 44%
Mean serum testosterone level [4, 13]: 7.6 ng/mL
Percentage change of mean serum testosterone levels compared to baseline [4, 13]: 54%
Mean serum testosterone level [4, 14]: 7.6 ng/mL
Percentage change of mean testosterone levels compared to baseline [4, 14]: 54%
Mean serum testosterone level [4, 15]: 8.0 ng/mL
Percentage change of mean serum testosterone levels compared to baseline [4, 15]: 82%
Mean serum testosterone level [4, 16]: 8.0 ng/mL
Percentage change of mean testosterone levels compared to baseline [4, 16]: 82%
Mean serum testosterone level [4, 17]: 7.4 ng/mL
Percentage change of mean serum testosterone levels compared to baseline [4, 17]: 1.8%
Mean serum testosterone level [4, 18]: 7.4 ng/mL
Percentage change of mean testosterone levels compared to baseline [4, 18]: 1.8%
Mean serum testosterone level [4, 19]: 5.1 ng/mL
Percentage change of mean serum testosterone levels compared to baseline [4, 19]: 3.5%
Mean serum testosterone level [4, 20]: 5.1 ng/mL
Percentage change of mean testosterone levels compared to baseline [4, 20]: 3.5%
